Test [1] concerns the target PI3Kα (Homo sapiens, UniProt P42336). The test can be described thus: PI3K kinase activity inhibition assay. Format: biochemical. To be noted: Kinase-Glo Plus ATP detection, read-out: IC50 against PI3K. A digest of the protocol:
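PI3Kα (50 nM solution) was reacted with 30 μM ATP and 45 μM PIP2 solutions, each in HEPES pH 7.4 with MgCl2 and DTT, for 2 h at room temperature. Remaining ATP was measured by Kinase-Glo Plus luminescence, and inhibition was derived from ATP consumed. IC50 was taken from curve fitting of the serial dilutions.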
For orientation: Kinase-Glo measures the ATP left after a reaction by luminescence.

Test [2] concerns the target T1, human mTOR (His-tagged mTOR (1362C)) (Homo sapiens, UniProt P42345).
T1 construct: the 1362 to 2549 amino acid portion on the C terminus side of human mTOR; His tag (N); made in house
The test can be described thus: mTOR kinase activity inhibition assay. Format: biochemical. To be noted: HTRF, read-out: IC50 against mTOR. The essentials:
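Crude His-tagged mTOR (aa 1362–2549) from stable HEK293 cells, with 8 μg/ml biotinylated peptide in 50 mM HEPES pH 7.5, 20 mM MnCl2; compound diluted in 20 μM ATP solution, reaction 3 h at room temperature. Phospho-peptide detected by HTRF (anti-phospho-S6K Thr389 cryptate/streptavidin-XL665, overnight at 4°C), 665/620 nm ratio. IC50 derived from curve fit of % inhibition.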
A general note: TR-FRET usually uses a lanthanide donor and a delayed reading to cut background.

Test [3] has as its system human endometrial cancer cell strain AN3CA. The test can be described thus: Cell growth inhibition test (MTT), AN3CA. Format: cell-based. To be noted: AN3-CA, 72 h, 3 days culture, read-out: concentration exhibiting anti-cell effect (GI50). A digest of the protocol:
(§1)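 Living cells were counted by MTT reduction (4 h; formazan dissolved in DMSO, A540) after 3-day compound exposure at 37° C, 5% CO2. Seeding was 5000 (AN3CA), 1000 (IGROV1) or 5000 (HT29) cells/well, dosing the following day. Growth rate T/C % used pre-dose baseline; GI50 interpolated at 50%.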

The subject of test [4] is human ovary cancer cell strain IGROV1. The test can be described thus: Cell growth inhibition test (MTT), IGROV1. To be noted: IGROV-1, 72 h, IGROV1, 3 days culture, read-out: concentration exhibiting anti-cell effect (GI50). The format is cell-based. A digest of the protocol:
as §1

In test [5] the test system is human colon cancer cell strain HT29. The test can be described thus: Cell growth inhibition test (MTT), HT29. To be noted: HT-29, 72 h, HT29, 3 days culture, read-out: concentration exhibiting anti-cell effect (GI50). Format: cell-based. The essentials: as §1

Sequence of PI3Kα (P42336 whole entry, species assumed): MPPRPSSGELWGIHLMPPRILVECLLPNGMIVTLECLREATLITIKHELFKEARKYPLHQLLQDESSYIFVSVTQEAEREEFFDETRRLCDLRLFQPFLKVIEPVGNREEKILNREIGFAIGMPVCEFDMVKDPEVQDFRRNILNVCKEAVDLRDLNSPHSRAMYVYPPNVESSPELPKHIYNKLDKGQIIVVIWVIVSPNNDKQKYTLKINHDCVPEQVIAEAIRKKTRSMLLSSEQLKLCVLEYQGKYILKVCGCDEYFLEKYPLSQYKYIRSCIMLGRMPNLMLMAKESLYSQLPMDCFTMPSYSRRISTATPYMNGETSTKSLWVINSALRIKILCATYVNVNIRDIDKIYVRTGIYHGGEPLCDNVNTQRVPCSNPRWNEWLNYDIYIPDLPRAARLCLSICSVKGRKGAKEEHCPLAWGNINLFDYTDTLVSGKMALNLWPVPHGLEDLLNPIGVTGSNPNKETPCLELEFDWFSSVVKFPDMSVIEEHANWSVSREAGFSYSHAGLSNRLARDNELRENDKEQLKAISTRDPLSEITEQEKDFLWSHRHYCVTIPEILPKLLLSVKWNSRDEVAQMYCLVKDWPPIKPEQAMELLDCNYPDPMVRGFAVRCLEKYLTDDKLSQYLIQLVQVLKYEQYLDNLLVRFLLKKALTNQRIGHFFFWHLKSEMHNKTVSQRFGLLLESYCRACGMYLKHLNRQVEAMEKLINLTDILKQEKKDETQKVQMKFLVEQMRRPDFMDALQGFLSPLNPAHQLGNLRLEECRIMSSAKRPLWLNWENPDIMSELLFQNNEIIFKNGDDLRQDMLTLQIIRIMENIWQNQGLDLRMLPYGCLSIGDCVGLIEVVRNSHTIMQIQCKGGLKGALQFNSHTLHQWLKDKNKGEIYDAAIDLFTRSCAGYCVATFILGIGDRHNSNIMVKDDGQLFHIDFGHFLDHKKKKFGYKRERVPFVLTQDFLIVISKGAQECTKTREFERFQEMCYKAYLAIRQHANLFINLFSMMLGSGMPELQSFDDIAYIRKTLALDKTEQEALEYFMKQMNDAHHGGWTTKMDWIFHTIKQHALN
Sequence of PI3Kα (P27986 whole entry partner, species assumed): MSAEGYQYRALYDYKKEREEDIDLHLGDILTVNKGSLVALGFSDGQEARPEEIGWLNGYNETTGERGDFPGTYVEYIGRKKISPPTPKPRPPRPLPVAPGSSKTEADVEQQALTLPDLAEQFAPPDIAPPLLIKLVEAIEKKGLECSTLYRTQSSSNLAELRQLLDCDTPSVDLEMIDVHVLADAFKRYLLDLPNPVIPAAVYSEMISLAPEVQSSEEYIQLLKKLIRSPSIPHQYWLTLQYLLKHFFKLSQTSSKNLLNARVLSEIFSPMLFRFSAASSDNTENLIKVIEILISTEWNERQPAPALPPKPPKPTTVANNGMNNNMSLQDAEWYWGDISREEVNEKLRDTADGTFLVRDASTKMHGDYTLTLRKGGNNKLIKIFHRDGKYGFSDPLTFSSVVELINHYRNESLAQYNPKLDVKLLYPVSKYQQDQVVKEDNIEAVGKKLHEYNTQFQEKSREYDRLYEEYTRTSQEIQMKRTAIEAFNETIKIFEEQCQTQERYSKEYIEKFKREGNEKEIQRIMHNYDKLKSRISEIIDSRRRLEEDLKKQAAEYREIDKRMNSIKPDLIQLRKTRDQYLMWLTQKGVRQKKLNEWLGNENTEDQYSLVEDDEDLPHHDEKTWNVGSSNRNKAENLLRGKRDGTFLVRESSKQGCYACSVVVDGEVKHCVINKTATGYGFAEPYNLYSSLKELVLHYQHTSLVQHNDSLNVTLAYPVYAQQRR
T1 sequence (P42345 1362-2549): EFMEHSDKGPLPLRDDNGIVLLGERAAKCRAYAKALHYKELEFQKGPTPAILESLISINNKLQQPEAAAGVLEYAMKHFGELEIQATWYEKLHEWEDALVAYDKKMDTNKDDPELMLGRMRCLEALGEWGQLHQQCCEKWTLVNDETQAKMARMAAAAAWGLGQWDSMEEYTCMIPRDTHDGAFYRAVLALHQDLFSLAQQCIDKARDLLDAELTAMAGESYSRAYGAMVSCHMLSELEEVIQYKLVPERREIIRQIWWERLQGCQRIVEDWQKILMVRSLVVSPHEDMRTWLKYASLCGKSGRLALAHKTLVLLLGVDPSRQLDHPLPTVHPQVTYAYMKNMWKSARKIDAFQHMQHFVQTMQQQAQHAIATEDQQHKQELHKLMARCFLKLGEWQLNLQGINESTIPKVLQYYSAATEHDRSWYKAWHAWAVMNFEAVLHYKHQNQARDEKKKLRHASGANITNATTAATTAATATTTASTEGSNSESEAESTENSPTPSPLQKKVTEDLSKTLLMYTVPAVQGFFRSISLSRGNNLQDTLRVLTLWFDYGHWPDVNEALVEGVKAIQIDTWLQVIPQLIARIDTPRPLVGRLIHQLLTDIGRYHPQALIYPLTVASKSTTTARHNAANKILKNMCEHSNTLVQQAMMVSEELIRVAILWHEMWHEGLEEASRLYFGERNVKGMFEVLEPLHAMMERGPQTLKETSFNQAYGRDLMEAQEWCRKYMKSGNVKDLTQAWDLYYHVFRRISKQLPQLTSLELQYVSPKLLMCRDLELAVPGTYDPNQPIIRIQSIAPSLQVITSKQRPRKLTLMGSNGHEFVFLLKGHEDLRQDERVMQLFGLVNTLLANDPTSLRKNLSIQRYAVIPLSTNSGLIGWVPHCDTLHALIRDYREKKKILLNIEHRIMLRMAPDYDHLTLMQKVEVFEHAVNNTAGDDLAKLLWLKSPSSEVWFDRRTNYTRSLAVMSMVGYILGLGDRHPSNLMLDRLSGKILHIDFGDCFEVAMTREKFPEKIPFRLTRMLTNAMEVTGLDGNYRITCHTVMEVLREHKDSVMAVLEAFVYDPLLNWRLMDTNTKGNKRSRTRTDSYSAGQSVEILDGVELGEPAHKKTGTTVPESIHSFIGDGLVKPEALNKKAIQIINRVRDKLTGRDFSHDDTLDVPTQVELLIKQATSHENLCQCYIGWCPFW

In the case of `Cc1nc(N)ncc1-c1nc(N2CCOCC2)c2nc(N3CCC(N(C)C)C3)n(CC3CC3)c2n1` (stereo not drawn) [Example 33, 5-{9-(Cyclopropylmethyl)-8-[3-(dimethylamino)pyrrolidin-1-yl]-6-morpholin-4-yl-9H-purin-2-yl}-4-methylpyrimidin-2-amine], the figures for the concentration for half-maximal inhibition (IC50) in test [1] and in test [2] were 20 to 50 nM and not below 500 nM, respectively. Further, the GI50 in test [3], in test [4] and in test [5] was not above 5000 nM throughout.

Consider `Cc1nc(N)ncc1-c1nc(N2CCOCC2)c2nc(N3CCC(N(C)S(C)(=O)=O)C3)n(CC3CC3)c2n1` (stereo not drawn) [Example 34, N-{1-[2-(2-Amino-4-methylpyrimidin-5-yl)-9-(cyclopropylmethyl)-6-morpholin-4-yl-9H-purin-8-yl]pyrrolidin-3-yl}-N-methylmethanesulfonamide], for which the 50% inhibitory concentration (IC50) (commonly the concentration that gives 50% inhibition) in test [1] is 10 to 20 nM; in test [2] it was 100 to 500 nM. In addition, the GI50 in test [3], in test [4] and in test [5] was not above 5000 nM throughout.

Consider `Cc1nc(N)ncc1-c1nc(N2CCOCC2)c2nc(N3CCC(NS(C)(=O)=O)C3)n(CC3CC3)c2n1` (stereo not drawn) [Example 35, N-{1-[2-(2-Amino-4-methylpyrimidin-5-yl)-9-(cyclopropylmethyl)-6-morpholin-4-yl-9H-purin-8-yl]pyrrolidin-3-yl}methanesulfonamide], for which the 50% inhibitory concentration (IC50) in test [1] is 10 to 20 nM; in test [2], not below 500 nM. Also, the GI50 in test [3], in test [4] and in test [5] was not above 5000 nM each time.

`Cc1nc(N)ncc1-c1nc(N2CCOCC2)c2nc(N3CCC(C(N)=O)CC3)n(CC3CC3)c2n1` [Example 36, 1-[2-(2-Amino-4-methylpyrimidin-5-yl)-9-(cyclopropylmethyl)-6-morpholin-4-yl-9H-purin-8-yl]piperidine-4-carboxamide]: the IC50 in test [1] was less than 10 nM; in test [2], 100 to 500 nM. The GI50 in test [3], in test [4] and in test [5] was not above 5000 nM in each case.

With `Cc1nc(N)ncc1-c1nc(N2CCOCC2)c2nc(N3CCC(CO)CC3)n(CC3CC3)c2n1` [Example 37, {1-[2-(2-Amino-4-methylpyrimidin-5-yl)-9-(cyclopropylmethyl)-6-morpholin-4-yl-9H-purin-8-yl]piperidin-4-yl}methanol], the IC50 lay within 10 to 20 nM in test [1] and 100 to 500 nM in test [2]. The GI50 in test [3], in test [4] and in test [5] was not above 5000 nM throughout.

Regarding `C[C@@H]1CN(c2nc3c(N4CCOCC4)nc(-c4cnc(N)nc4)nc3n2CC2CC2)C[C@H](C)N1S(C)(=O)=O` [Example 38, 5-{9-(Cyclopropylmethyl)-8-[cis-3,5-dimethyl-4-(methylsulfonyl)piperazin-1-yl]-6-morpholin-4-yl-9H-purin-2-yl}pyrimidin-2-amine], the IC50 lay in the range of 10 to 20 nM in test [1] and 10 to 30 nM in test [2]. Moreover, the GI50 in test [3], in test [4] and in test [5] was not above 5000 nM each time.

Turning to `CNc1ncc(-c2nc(N3CCOCC3)c3nc(N4CCOCC4)n(CC4CC4)c3n2)cn1` [Example 39, 5-[9-(Cyclopropylmethyl)-6,8-dimorpholin-4-yl-9H-purin-2-yl]-N-methylpyrimidin-2-amine], the concentration for half-maximal inhibition (IC50) in test [1] is less than 10 nM; in test [2], 30 to 100 nM. Besides, the GI50 in test [3], in test [4] and in test [5] was not above 5000 nM in each case.

As to `CN(C)CC(=O)N1CCN(c2nc3c(N4CCOCC4)nc(-c4cnc(N)nc4)nc3n2CC2CC2)CC1` [Example 40, 5-[9-(Cyclopropylmethyl)-8-{4-[(dimethylamino)acetyl]piperazin-1-yl}-6-morpholin-4-yl-9H-purin-2-yl]pyrimidin-2-amine], the IC50 is 10 to 20 nM in test [1] and 100 to 500 nM in test [2]. Further, the GI50 in test [3], in test [4] and in test [5] was not above 5000 nM each time.

For the molecule `CNCC(=O)N1CCN(c2nc3c(N4CCOCC4)nc(-c4cnc(N)nc4)nc3n2CC2CC2)CC1` [Example 41, 5-[9-(Cyclopropylmethyl)-8-{4-[(methylamino)acetyl]piperazin-1-yl}-6-morpholin-4-yl-9H-purin-2-yl]pyrimidin-2-amine], the IC50 in test [1] was less than 10 nM; in test [2], 30 to 100 nM. The GI50 in test [3], in test [4] and in test [5] was not above 5000 nM each time.

Regarding `NCC(=O)N1CCN(c2nc3c(N4CCOCC4)nc(-c4cnc(N)nc4)nc3n2CC2CC2)CC1` [Example 42, 5-{8-[4-(Aminoacetyl)piperazin-1-yl]-9-(cyclopropylmethyl)-6-morpholin-4-yl-9H-purin-2-yl}pyrimidin-2-amine], the IC50 is less than 10 nM in test [1] and 30 to 100 nM in test [2]. Besides, the GI50 in test [3], in test [4] and in test [5] was not above 5000 nM throughout.

As for `CNc1ncc(-c2nc(N3CCOCC3)c3nc(N4CCN(S(C)(=O)=O)CC4)n(CC4CC4)c3n2)c(C)n1` [Example 43], the values for the IC50 in test [1] and in test [2] were 10 to 20 nM and 100 to 500 nM, respectively. Besides, the GI50 in test [3], in test [4] and in test [5] was not above 5000 nM throughout.

Consider `CC(C)Cn1c(N2CCN(C(=O)N(C)C)CC2)nc2c(N3CCOCC3)nc(-c3cnc(N)nc3)nc21` [Example 45, 4-[2-(2-Aminopyrimidin-5-yl)-9-isobutyl-6-morpholin-4-yl-9H-purin-8-yl]-N,N-dimethylpiperazine-1-carboxamide], for which the IC50 in test [1] is 20 to 50 nM; in test [2] it was 30 to 100 nM. Also, the GI50 in test [3], in test [4] and in test [5] was not above 5000 nM throughout.

Regarding `CC(C)n1c(N2CCN(S(C)(=O)=O)CC2)nc2c(N3CCOCC3)nc(-c3cnc(N)nc3)nc21` [Example 46, 5-{9-Isopropyl-8-[4-(methylsulfonyl)piperazin-1-yl]-6-morpholin-4-yl-9H-purin-2-yl}pyrimidin-2-amine], the figures for the concentration for half-maximal inhibition (IC50) in test [1] and in test [2] were 20 to 50 nM and 30 to 100 nM, respectively. In addition, the GI50 in test [3], in test [4] and in test [5] was not above 5000 nM throughout.

For `CC(C)Cn1c(N2CCCN(S(C)(=O)=O)CC2)nc2c(N3CCOCC3)nc(-c3cnc(N)nc3)nc21` [Example 49, 5-{9-Isobutyl-8-[4-(methylsulfonyl)-1,4-diazepan-1-yl]-6-morpholin-4-yl-9H-purin-2-yl}pyrimidin-2-amine], the IC50 was less than 10 nM in test [1] and 10 to 30 nM in test [2]. Also, the GI50 in test [3], in test [4] and in test [5] was not above 5000 nM each time.

In the case of `CC(C)Cn1c(N2CCN[C@@H](C)C2)nc2c(N3CCOCC3)nc(-c3cnc(N)nc3)nc21` [Example 51, 5-{9-Isobutyl-8-[(3S)-3-methylpiperazin-1-yl]-6-morpholin-4-yl-9H-purin-2-yl}pyrimidin-2-amine], the IC50 in test [1] lay within 10 to 20 nM; in test [2], 10 to 30 nM. Moreover, the GI50 in test [3], in test [4] and in test [5] was not above 5000 nM throughout.

On to `CC(C)Cn1c(N2CCN[C@H](C)C2)nc2c(N3CCOCC3)nc(-c3cnc(N)nc3)nc21` [Example 52, 5-{9-Isobutyl-8-[(3R)-3-methylpiperazin-1-yl]-6-morpholin-4-yl-9H-purin-2-yl}pyrimidin-2-amine], for which the results for the concentration for half-maximal inhibition (IC50) in test [1] and in test [2] were less than 10 nM and 30 to 100 nM, respectively. For the same molecule, the GI50 in test [3], in test [4] and in test [5] was not above 5000 nM throughout.

In the case of `Nc1ncc(-c2nc(N3CCOCC3)c3nc(N4CCN(C(=O)Cn5ccnc5)CC4)n(CC4CC4)c3n2)cn1` [Example 56, 5-{9-(Cyclopropylmethyl)-8-[4-(1H-imidazol-1-ylacetyl)piperazin-1-yl]-6-morpholin-4-yl-9H-purin-2-yl}pyrimidin-2-amine], the half-maximal inhibitory concentration (IC50) in test [1] was less than 10 nM; in test [2], 10 to 30 nM. Moreover, the GI50 in test [3], in test [4] and in test [5] was not above 5000 nM throughout.

As to `C[C@H]1CN(c2nc3c(N4CCOCC4)nc(-c4cnc(N)nc4)nc3n2CC(F)(F)F)CCN1` [Example 58, 5-{8-[(3S)-3-Methylpiperazin-1-yl]-6-morpholin-4-yl-9-(2,2,2-trifluoroethyl)-9H-purin-2-yl}pyrimidin-2-amine], the half-maximal inhibitory concentration (IC50) is less than 10 nM in test [1] and 10 to 30 nM in test [2]. The GI50 in test [3], in test [4] and in test [5] was not above 5000 nM throughout.

The record behind these values is patent US8309546B2, “Morpholinopurine derivatives” (Daiichi Sankyo Company, Limited, priority 2008, dated 2012).
